IC50 data for 52 compounds are collected here from US10626094B2 (La Jolla Institute of Allergy & Immunology, priority 2014, dated 2020).

As usually defined, the IC50 is the concentration needed to halve the response being measured.

In the assay the target is LMPTP-A (Low Molecular Weight Protein Tyrosine Phosphatase-A) enzyme (Homo sapiens (Human), UniProt P24666). The assay is described as follows: LMPTP primary screening / LMPTP (OMFP) enzyme inhibition assay, fluorescence intensity. Type of assay: biochemical. Particulars: LMPTP-A, OMFP substrate, method of Example 2; read-out: IC50. The method in brief: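 Single-concentration screen, test compounds 20 μM final, […]. Enzyme (0.625 nM) and OMFP (400 μM) react 50 min at room temp, dark, in Bis-Tris buffer pH 6.0 containing DTT 1 mM and Triton X-100 0.01%. Read-out: fluorescence intensity.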
LMPTP-A (Low Molecular Weight Protein Tyrosine Phosphatase-A) enzyme, sequence (P24666 whole entry): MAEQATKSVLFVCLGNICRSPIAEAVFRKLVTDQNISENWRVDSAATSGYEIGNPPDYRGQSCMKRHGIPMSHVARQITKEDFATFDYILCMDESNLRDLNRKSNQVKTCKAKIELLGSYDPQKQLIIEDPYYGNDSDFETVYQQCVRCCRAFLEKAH
As to `Clc1cccc(-c2cc(Nc3cccc(CC4CCN(Cc5ccccc5)CC4)c3)c3ccccc3n2)c1` [Compound I17, [2-(3-chlorophenyl)(4-quinolyl)](3-{[1-benzyl(4-piperidyl)]methyl}phenyl)amine], the 50% inhibitory concentration (IC50) lay in the range of 0.801 to 5 µM.
The result for `O=C(NCCCN1CCOCC1)c1ccc(-c2cc(NCCCN3CCCCC3)c3ccccc3n2)cc1` [Compound I192] reads 0.2 to 0.8 µM; that for `CN(C)CCNC(=O)c1ccc(-c2cc(NCCCN3CCCCC3)c3ccccc3n2)cc1` [Compound I66], 0.2 to 0.8 µM.
Turning to `NC(=O)c1ccc(-c2cc(NCc3ccc(CN4CCOCC4)cc3)c3ccccc3n2)cc1` [Compound I212, 4-[4-({[4-(morpholin-4-ylmethyl)phenyl]methyl}amino)-2-quinolyl]benzamide], the IC50 was > 5 µM.
Consider `COc1ccc(-c2cc(Nc3cccc(C)n3)c3ccccc3n2)cc1` [Compound G67, [2-(4-methoxyphenyl)(4-quinolyl)](6-methyl(2-pyridyl))amine], for which the IC50 was 0.801 to 5 µM.
In the case of `COc1ccc(-c2cc(Nc3ccncc3)c3ccccc3n2)cc1` [Compound G65, [2-(4-methoxyphenyl)(4-quinolyl)]-4-pyridylamine], the IC50 fell in the range of 0.801 to 5 µM.
The value for `COc1ccc(-c2cc(Nc3ccc(CN(C)C)cc3)c3ccccc3n2)cc1` [Compound I26, [(4-{[2-(4-methoxyphenyl)(4-quinolyl)]amino}phenyl)methyl]dimethylamine] was 0.801 to 5 µM; that for `CCNC(=O)c1ccc(-c2cc(NCCCN3CCCCC3)c3ccccc3n2)cc1` [Compound I62] was 0.801 to 5 µM; that for `c1cc2c3c(cc(-c4cc(NCCCN5CCCCC5)c5ccccc5n4)cc3c1)CC2` [Compound I256] was 0.2 to 0.8 µM.
Take `CC(=O)Nc1cc(C(=O)O)cc(-c2cc(NCCCN3CCCCC3)c3ccccc3n2)c1` [Compound I250]: the IC50 lay in the range of 0.801 to 5 µM.
The value for `CCN(CC)S(=O)(=O)c1ccc(-c2cc(NCCCN3CCCCC3)c3ccccc3n2)cc1` [Compound I246] was 0.801 to 5 µM; that for “[2-(4-methoxyphenyl)(4-5,6,7,8-tetrahydroquinolyl)][4-(piperidylmethyl)phenyl]amine [Compound I207]” was 0.801 to 5 µM; that for `CCOC(=O)c1cccc(-c2cc(NCCCN3CCCCC3)c3ccccc3n2)c1` [Compound I137] was 0.801 to 5 µM.
As to `COc1ccc(-c2cc(Nc3cccc(CN(C)C)c3)c3ccccc3n2)cc1` [Compound I39, [(3-{[2-(4-methoxyphenyl)(4-quinolyl)]amino}phenyl)methyl]dimethylamine], the IC50 was in the range of 0.801 to 5 µM.
Take `Fc1cccc(-c2cc(NCCCC3CCCNC3)c3ccccc3n2)c1` (stereo not shown) [Compound I162, [2-(3-fluorophenyl)(4-quinolyl)](3-piperidylpropyl)amine]: the IC50 was 0.801 to 5 µM.
Turning to `Clc1cccc(-c2cc(Nc3ccccc3CC3CCNCC3)c3ccccc3n2)c1` [Compound I21, [2-(3-chlorophenyl)(4-quinolyl)][2-(4-piperidylmethyl)phenyl]amine], the IC50 lay in the range of 0.801 to 5 µM.
On to `COc1ccc(-c2cc(Nc3cccc4cccnc34)c3ccccc3n2)cc1` [Compound G69], for which the IC50 was > 5 µM.
As for `COc1ccc(-c2cc(Nc3cccc(CN4CCCN(C)CC4)c3)c3ccccc3n2)cc1` [Compound G57, [2-(4-methoxyphenyl)(4-quinolyl)]{3-[(4-methyl(1,4-diazaperhydroepinyl))methyl]phenyl}amine], the IC50 is 0.2 to 0.8 µM.
In the case of `Fc1cccc(F)c1-c1cc(NCCCN2CCCCC2)c2ccccc2n1` [Compound I130], the IC50 fell in the range of 0.801 to 5 µM.
`N#Cc1ccccc1-c1cc(Nc2cccc(CN3CCCC3)c2)c2ccccc2n1` [Compound I2, 2-(4-{[3-(pyrrolidinylmethyl)phenyl]amino}-2-quinolyl)benzenecarbonitrile]: the IC50 was in the range of 0.801 to 5 µM.
On to `CSc1cncc(-c2cc(NCCCN3CCCCC3)c3ccccc3n2)c1` [Compound I92], for which the IC50 fell in the range of 0.801 to 5 µM.
The result for `c1ccc(-c2nc(NCCN3CCOCC3)c3ccccc3n2)cc1` [Compound I184, (2-morpholin-4-ylethyl)(2-phenylquinazolin-4-yl)amine] reads > 5 µM.
For `CC(C)(C)OC(=O)n1c(-c2cc(NCCCN3CCCCC3)c3ccccc3n2)cc2ccccc21` [Compound I98, tert-butyl 2-{4-[(3-piperidylpropyl)amino]-2-quinolyl}indolecarboxylate], the IC50 was > 5 µM.
As to `COc1ccc(-c2cc(NCCCN3CCCCC3)c3cc(C)ccc3n2)cc1` [Compound G24, [2-(4-methoxy-phenyl)-6-methyl-quinolin-4-yl]-(3-piperidin-1-yl-propyl)-amine], the IC50 is > 5 µM.
For `CN(C)Cc1cccc(Nc2cc(-c3cccc(Cl)c3)nc3ccccc23)c1` [Compound I22, [(3-{[2-(3-chlorophenyl)(4-quinolyl)]amino}phenyl)methyl]dimethylamine], the IC50 was 0.2 to 0.8 µM.
The result for `FC(F)(F)c1ccc(-c2cc(NCCCC3CCCNC3)c3ccccc3n2)c(Cl)c1` (stereo not shown) [Compound I120] reads 0.801 to 5 µM.
The value for `Nc1cc(C(=O)N2CCOCC2)cc(-c2cc(NCCCN3CCCCC3)c3ccccc3n2)c1` [Compound I80] was 0.801 to 5 µM; that for “[2-(3,4-dichlorophenyl)(4-quinolyl)](3-piperidylpropyl)amine [Compound I138]” was 0.801 to 5 µM.
Consider `CC(C)CNC(=O)c1ccc(-c2cc(NCCCN3CCCCC3)c3ccccc3n2)cc1` [Compound I226], for which the IC50 was in the range of 0.801 to 5 µM.
Take `O=C(NCC(F)(F)F)c1ccc(-c2cc(NCCCN3CCCCC3)c3ccccc3n2)cc1` [Compound I63]: the IC50 is 0.801 to 5 µM.
In the case of `O=C(NCCCO)c1ccc(-c2cc(NCCCN3CCCCC3)c3ccccc3n2)cc1` [Compound I67], the IC50 lay within 0.2 to 0.8 µM.
`COc1ccc(-c2cc(Nc3ccc(CN4CCOCC4)cc3)c3ccccc3n2)cc1` [Compound G52, [2-(4-methoxyphenyl)(4-quinolyl)][4-(morpholin-4-ylmethyl)phenyl]amine]: the IC50 fell in the range of 0.801 to 5 µM.
In the case of `Cn1cc(-c2cc(NCCCN3CCCCC3)c3ccccc3n2)cn1` [Compound G18, [2-(1-Methyl-1H-pyrazol-4-yl)-quinolin-4-yl]-(3-piperidin-1-yl-propyl)-amine], the IC50 was > 5 µM.
As for `Fc1cc(Cl)ccc1-c1cc(Nc2cccc(CC3CCNCC3)c2)c2ccccc2n1` [Compound I7, [2-(4-chloro-2-fluorophenyl)(4-quinolyl)][3-(4-piperidylmethyl)phenyl]amine], the IC50 lay in the range of 0.801 to 5 µM.
With `CN(C)c1cc(-c2cnn(C)c2)nc2ccccc12` [Compound G19, Dimethyl[2-(1-methylpyrazol-4-yl)(4-quinolyl)]amine], the IC50 was > 5 µM.
The result for “[2-(5-bromo-3-chloro-2-fluorophenyl)(4-quinolyl)](3-piperidylpropyl)amine [Compound I239]” reads 0.801 to 5 µM; that for `CN(C)Cc1cccc(Nc2cc(-c3cc(C(F)(F)F)cc(C(F)(F)F)c3)nc3ccccc23)c1` [Compound I42, {[3-({2-[3,5-bis(trifluoromethyl)phenyl](4-quinolyl)}amino)phenyl]methyl}dimethylamine], > 5 µM.
`COc1ccc(-c2cc(Nc3ccn(C)n3)c3ccccc3n2)cc1` [Compound G46]: the IC50 was in the range of 0.801 to 5 µM.
The result for `NC(=O)c1ccc(-c2cc(N3CCC(Cc4ccc(N)cc4)CC3)c3ccccc3n2)cc1` [Compound I222, 4-(4-{4-[(4-aminophenyl)methyl]piperidyl}-2-quinolyl)benzamide] reads > 5 µM; that for `CC(=O)Nc1ccc(-c2cc(NCCCN3CCCCC3)c3ccccc3n2)cc1` [Compound I117], 0.801 to 5 µM.
Turning to `C1=C(c2cc(NCCCN3CCCCC3)c3ccccc3n2)OCC1` [Compound I241], the IC50 was > 5 µM.
The result for `CN1CCCC1CCNc1cc(-c2cccc(Cl)c2)nc2ccccc12` (stereo not shown) [Compound I15, [2-(3-chlorophenyl)(4-quinolyl)][2-(1-methylpyrrolidin-2-yl)ethyl]amine] reads 0.801 to 5 µM; that for `Cc1ccccc1-c1cc(NCCCN2CCCCC2)c2ccccc2n1` [Compound I159], 0.801 to 5 µM.
The result for `CN(C)c1cc(-c2cccs2)nc2ccccc12` [Compound G17, Dimethyl-(2-thiophen-2-yl-quinolin-4-yl)-amine] reads > 5 µM.
As for “2-(3-bromo-4-chloro-2-fluorophenyl)(4-quinolyl)](3-piperidylpropyl)amine [Compound I101]”, the IC50 is 0.801 to 5 µM.
The value for `COc1ccc(-c2cc(NCCc3ccccc3)c3ccccc3n2)cc1` [Compound G83, [2-(4-methoxyphenyl)(4-quinolyl)](2-phenylethyl)amine] was 0.801 to 5 µM; that for `Cn1ccc(-c2cc(NCCCN3CCCCC3)c3ccccc3n2)n1` [Compound I178] was > 5 µM.
In the case of `FC(F)(F)c1ccccc1-c1cc(Nc2ccccc2)c2ccccc2n1` [Compound G33, Phenyl-[2-(2-trifluoromethyl-phenyl)-quinolin-4-yl]-amine], the IC50 is > 5 µM.
In the case of `NC(=O)c1ccc(-c2cc(Nc3ccc(CN4CCCCC4)cc3)c3ccccc3n2)cc1` [Compound I6, 4-(4-{[4-(piperidylmethyl)phenyl]amino}-2-quinolyl)benzamide], the half-inhibitory concentration (IC50) was > 5 µM.
For `COc1ccc(-c2cc(Nc3ccc(CN4CCCCC4)cc3)c3ccccc3n2)cc1` [Compound I23, [2-(4-methoxyphenyl)(4-quinolyl)][4-(piperidylmethyl)phenyl]amine], the IC50 was in the range of 0.801 to 5 µM.
The value for `NC(=O)c1ccc(-c2cc(Nc3ccc(CC4CCNCC4)cc3)c3ccccc3n2)cc1` [Compound I220, 4-(4-{[4-(4-piperidylmethyl)phenyl]amino}-2-quinolyl)benzamide] was > 5 µM; that for `CN(C)Cc1ccc(Nc2cc(-c3cc(C(F)(F)F)cc(C(F)(F)F)c3)nc3ccccc23)cc1` [Compound I47, {[4-({2-[3,5-bis(trifluoromethyl)phenyl](4-quinolyl)}amino)phenyl]methyl}dimethylamine] was > 5 µM.
